Laboratory results published in publication PMC4843002, “Identification of pyrazolopyridazinones as PDEδ inhibitors” (Nature Communications, 2016).

How the values were obtained:
[1] = target: T1, A2A (h) (Homo sapiens, UniProt P29274); experiment: Cerep binding, agonist radioligand; details: read-out: % Inhibition of Control Specific Binding
T1 construct: purchased Eurofins Pharma Discovery Services (CEREP diversity panel)

[2] = tested on: alpha 1 (non-selective); experiment: Cerep binding, antagonist radioligand; details: 5 µM
[3] = target: T2, beta 1 (h) (Homo sapiens, UniProt P08588); experiment: Cerep binding, agonist radioligand; details: read-out: % Inhibition of Control Specific Binding
T2 construct: purchased Eurofins Pharma Discovery Services (CEREP diversity panel)

[4] = target: T3, beta 2 (h) (Homo sapiens, UniProt P07550); experiment: Cerep binding, agonist radioligand; details: read-out: % Inhibition of Control Specific Binding
T3 construct: purchased Eurofins Pharma Discovery Services (CEREP diversity panel)
T3 sequence (P07550 whole entry): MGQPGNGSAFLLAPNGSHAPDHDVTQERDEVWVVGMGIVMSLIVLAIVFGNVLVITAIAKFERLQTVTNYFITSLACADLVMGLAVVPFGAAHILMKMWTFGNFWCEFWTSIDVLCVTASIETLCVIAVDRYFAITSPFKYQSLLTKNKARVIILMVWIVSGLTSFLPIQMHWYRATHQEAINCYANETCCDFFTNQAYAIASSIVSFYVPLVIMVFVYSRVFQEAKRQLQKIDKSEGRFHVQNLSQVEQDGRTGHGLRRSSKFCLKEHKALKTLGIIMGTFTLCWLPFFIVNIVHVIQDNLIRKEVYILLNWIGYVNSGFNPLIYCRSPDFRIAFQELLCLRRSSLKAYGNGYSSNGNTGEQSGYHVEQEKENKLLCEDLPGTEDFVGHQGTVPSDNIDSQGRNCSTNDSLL

[5] = target: T4, AT1 (h) (Homo sapiens, UniProt P30556); experiment: Cerep binding, antagonist radioligand; details: read-out: % Inhibition of Control Specific Binding
T4 construct: purchased Eurofins Pharma Discovery Services (CEREP diversity panel)
T4 sequence (P30556 whole entry): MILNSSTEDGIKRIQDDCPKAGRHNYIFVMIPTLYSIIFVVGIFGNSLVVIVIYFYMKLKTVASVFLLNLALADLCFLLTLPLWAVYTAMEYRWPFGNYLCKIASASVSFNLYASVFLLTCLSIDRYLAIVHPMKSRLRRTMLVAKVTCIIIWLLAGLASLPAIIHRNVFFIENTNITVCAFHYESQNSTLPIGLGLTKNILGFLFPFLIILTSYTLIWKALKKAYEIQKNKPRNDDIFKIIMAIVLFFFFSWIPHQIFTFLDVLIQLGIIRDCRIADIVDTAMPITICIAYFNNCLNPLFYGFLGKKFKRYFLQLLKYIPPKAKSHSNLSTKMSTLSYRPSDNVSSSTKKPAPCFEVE

[6] = target: T5, AT2 (h) (Homo sapiens, UniProt P50052); experiment: Cerep binding, agonist radioligand; details: read-out: % Inhibition of Control Specific Binding
T5 construct: purchased Eurofins Pharma Discovery Services (CEREP diversity panel)
T5 sequence (P50052 whole entry): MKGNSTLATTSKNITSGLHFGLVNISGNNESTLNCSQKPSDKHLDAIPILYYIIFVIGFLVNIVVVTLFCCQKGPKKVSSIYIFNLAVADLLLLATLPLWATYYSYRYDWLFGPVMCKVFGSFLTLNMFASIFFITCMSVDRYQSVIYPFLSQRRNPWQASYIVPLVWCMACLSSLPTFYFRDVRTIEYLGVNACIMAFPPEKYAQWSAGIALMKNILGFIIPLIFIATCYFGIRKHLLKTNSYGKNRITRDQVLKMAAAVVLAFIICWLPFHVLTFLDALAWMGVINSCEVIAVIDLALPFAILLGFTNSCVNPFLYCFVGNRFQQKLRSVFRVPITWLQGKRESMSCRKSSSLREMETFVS

[7] = tested on: BZD (central); experiment: Cerep binding, agonist radioligand; details: 5 µM
[8] = target: T6, CB2 (h) (Homo sapiens, UniProt P34972); experiment: Cerep binding, agonist radioligand; details: read-out: % Inhibition of Control Specific Binding
T6 construct: purchased Eurofins Pharma Discovery Services (CEREP diversity panel)

[9] = target: T7, CRF1 (h) (Homo sapiens, UniProt P34998); experiment: Cerep binding, agonist radioligand; details: read-out: % Inhibition of Control Specific Binding
T7 construct: purchased Eurofins Pharma Discovery Services (CEREP diversity panel)
T7 sequence (P34998 24-415): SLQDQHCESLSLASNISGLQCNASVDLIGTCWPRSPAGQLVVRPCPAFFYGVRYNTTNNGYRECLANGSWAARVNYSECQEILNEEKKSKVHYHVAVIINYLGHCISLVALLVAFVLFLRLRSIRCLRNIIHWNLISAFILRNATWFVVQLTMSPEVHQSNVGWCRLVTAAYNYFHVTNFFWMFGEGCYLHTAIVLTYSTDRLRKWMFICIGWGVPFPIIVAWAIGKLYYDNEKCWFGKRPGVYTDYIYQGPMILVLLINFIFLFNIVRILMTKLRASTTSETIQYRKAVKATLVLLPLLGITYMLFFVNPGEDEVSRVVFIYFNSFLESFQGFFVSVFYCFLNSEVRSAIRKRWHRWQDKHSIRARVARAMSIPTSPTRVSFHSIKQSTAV

[10] = target: T8, D2S (h) (Homo sapiens, UniProt P14416); experiment: Cerep binding, antagonist radioligand; details: read-out: % Inhibition of Control Specific Binding
T8 construct: purchased Eurofins Pharma Discovery Services (CEREP diversity panel)

[11] = target: T9, D3 (h) (Homo sapiens, UniProt P35462); experiment: Cerep binding, antagonist radioligand; details: read-out: % Inhibition of Control Specific Binding
T9 construct: purchased Eurofins Pharma Discovery Services (CEREP diversity panel)

[12] = target: T10, ETB (h) (Homo sapiens, UniProt P24530); experiment: Cerep binding, agonist radioligand; details: read-out: % Inhibition of Control Specific Binding
T10 construct: purchased Eurofins Pharma Discovery Services (CEREP diversity panel)
T10 sequence (P24530 27-442): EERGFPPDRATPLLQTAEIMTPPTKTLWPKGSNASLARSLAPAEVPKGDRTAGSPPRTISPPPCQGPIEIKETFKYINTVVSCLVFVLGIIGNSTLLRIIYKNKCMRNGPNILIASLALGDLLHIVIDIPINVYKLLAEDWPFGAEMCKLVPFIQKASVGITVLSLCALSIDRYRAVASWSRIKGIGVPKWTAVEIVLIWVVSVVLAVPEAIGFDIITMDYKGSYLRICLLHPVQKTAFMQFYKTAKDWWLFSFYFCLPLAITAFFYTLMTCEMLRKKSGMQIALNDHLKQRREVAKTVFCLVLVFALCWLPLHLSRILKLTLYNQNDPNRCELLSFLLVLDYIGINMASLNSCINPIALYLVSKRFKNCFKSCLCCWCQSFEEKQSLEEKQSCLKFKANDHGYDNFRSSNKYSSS

[13] = tested on: GABA (non-selective); experiment: Cerep binding, agonist radioligand; details: 5 µM
[14] = tested on: AMPA; experiment: Cerep binding, agonist radioligand; details: 5 µM
[15] = tested on: kainate; experiment: Cerep binding, agonist radioligand; details: 5 µM
[16] = target: T11, H2 (h) (Homo sapiens, UniProt P25021); experiment: Cerep binding, antagonist radioligand; details: read-out: % Inhibition of Control Specific Binding
T11 construct: purchased Eurofins Pharma Discovery Services (CEREP diversity panel)
T11 sequence (P25021 whole entry): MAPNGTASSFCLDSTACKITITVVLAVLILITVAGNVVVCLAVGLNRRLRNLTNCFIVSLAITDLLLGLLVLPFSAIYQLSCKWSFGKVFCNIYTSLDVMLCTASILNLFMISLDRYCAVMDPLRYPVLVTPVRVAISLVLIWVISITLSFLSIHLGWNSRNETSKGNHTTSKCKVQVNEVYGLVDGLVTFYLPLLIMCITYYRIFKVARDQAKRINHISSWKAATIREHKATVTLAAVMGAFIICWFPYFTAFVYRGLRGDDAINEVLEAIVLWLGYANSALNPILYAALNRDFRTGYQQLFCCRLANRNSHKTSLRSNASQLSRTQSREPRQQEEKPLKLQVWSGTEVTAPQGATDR

[17] = tested on: I2; experiment: Cerep binding, antagonist radioligand; details: 5 µM
[18] = target: T12, BLT1 (LTB4) (h) (Homo sapiens, UniProt Q15722); experiment: Cerep binding, agonist radioligand; details: read-out: % Inhibition of Control Specific Binding
T12 construct: purchased Eurofins Pharma Discovery Services (CEREP diversity panel)
T12 sequence (Q15722 whole entry): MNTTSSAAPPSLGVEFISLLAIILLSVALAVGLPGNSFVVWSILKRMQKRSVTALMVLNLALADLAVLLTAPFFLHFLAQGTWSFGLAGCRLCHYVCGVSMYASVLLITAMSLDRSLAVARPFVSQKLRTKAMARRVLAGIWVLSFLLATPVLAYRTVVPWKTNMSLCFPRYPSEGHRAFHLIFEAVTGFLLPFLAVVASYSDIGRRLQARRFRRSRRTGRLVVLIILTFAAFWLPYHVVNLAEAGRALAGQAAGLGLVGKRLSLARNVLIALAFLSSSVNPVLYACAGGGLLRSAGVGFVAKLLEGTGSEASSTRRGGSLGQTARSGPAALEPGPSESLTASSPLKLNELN

[19] = target: T13, MC4 (h) (Homo sapiens, UniProt P32245); experiment: Cerep binding, agonist radioligand; details: read-out: % Inhibition of Control Specific Binding
T13 construct: purchased Eurofins Pharma Discovery Services (CEREP diversity panel)

[20] = target: T14, MT1 (ML1A) (h) (Homo sapiens, UniProt P48039); experiment: Cerep binding, agonist radioligand; details: read-out: % Inhibition of Control Specific Binding
T14 construct: purchased Eurofins Pharma Discovery Services (CEREP diversity panel)

[21] = target: T15, NK1 (h) (Homo sapiens, UniProt P25103); experiment: Cerep binding, agonist radioligand; details: read-out: % Inhibition of Control Specific Binding
T15 construct: purchased Eurofins Pharma Discovery Services (CEREP diversity panel)

[22] = tested on: opioid (non-selective); experiment: Cerep binding, antagonist radioligand; details: 5 µM
[23] = target: T16, NOP (ORL1) (h) (Homo sapiens, UniProt P41146); experiment: Cerep binding, agonist radioligand; details: read-out: % Inhibition of Control Specific Binding
T16 construct: purchased Eurofins Pharma Discovery Services (CEREP diversity panel)

[24] = target: T17, EP2 (h) (Homo sapiens, UniProt P43116); experiment: Cerep binding, agonist radioligand; details: read-out: % Inhibition of Control Specific Binding
T17 construct: purchased Eurofins Pharma Discovery Services (CEREP diversity panel)
T17 sequence (P43116 whole entry): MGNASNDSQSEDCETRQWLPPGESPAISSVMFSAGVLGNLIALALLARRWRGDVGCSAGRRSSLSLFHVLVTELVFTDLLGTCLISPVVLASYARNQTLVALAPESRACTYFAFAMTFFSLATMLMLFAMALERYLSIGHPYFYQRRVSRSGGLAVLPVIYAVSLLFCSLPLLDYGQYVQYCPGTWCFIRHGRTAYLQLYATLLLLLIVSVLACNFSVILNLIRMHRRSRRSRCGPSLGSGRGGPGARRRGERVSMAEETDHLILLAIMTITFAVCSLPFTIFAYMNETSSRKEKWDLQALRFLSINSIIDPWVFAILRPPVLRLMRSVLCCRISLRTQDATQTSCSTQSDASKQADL

[25] = tested on: P2Y; experiment: Cerep binding, agonist radioligand; details: 5 µM
[26] = tested on: 5-HT (non-selective); experiment: Cerep binding, agonist radioligand; details: 5 µM
[27] = target: T18, PR (h) (Homo sapiens, UniProt P06401); experiment: Cerep binding, agonist radioligand; details: read-out: % Inhibition of Control Specific Binding
T18 construct: purchased Eurofins Pharma Discovery Services (CEREP diversity panel)

[28] = target: T19, AR (h) (Homo sapiens, UniProt P10275, T878A); experiment: Cerep binding, agonist radioligand; details: read-out: % Inhibition of Control Specific Binding
T19 construct: purchased Eurofins Pharma Discovery Services (CEREP diversity panel)

[29] = target: T20, TRH1 (h) (Homo sapiens, UniProt P34981); experiment: Cerep binding, agonist radioligand; details: read-out: % Inhibition of Control Specific Binding
T20 construct: purchased Eurofins Pharma Discovery Services (CEREP diversity panel)
T20 sequence (P34981 whole entry): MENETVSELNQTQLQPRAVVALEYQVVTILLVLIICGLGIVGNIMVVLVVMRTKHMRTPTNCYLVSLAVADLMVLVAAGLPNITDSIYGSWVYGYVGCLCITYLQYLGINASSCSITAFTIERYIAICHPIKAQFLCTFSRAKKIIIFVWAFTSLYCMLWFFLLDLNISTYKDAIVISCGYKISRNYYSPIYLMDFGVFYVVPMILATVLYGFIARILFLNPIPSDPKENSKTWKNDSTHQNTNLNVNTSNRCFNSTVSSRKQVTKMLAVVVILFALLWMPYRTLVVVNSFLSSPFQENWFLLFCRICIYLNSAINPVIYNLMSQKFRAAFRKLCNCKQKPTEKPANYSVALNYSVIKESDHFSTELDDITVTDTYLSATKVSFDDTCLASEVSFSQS

[30] = target: T21, V2 (h) (Homo sapiens, UniProt P30518); experiment: Cerep binding, agonist radioligand; details: read-out: % Inhibition of Control Specific Binding
T21 construct: purchased Eurofins Pharma Discovery Services (CEREP diversity panel)
T21 sequence (P30518 whole entry): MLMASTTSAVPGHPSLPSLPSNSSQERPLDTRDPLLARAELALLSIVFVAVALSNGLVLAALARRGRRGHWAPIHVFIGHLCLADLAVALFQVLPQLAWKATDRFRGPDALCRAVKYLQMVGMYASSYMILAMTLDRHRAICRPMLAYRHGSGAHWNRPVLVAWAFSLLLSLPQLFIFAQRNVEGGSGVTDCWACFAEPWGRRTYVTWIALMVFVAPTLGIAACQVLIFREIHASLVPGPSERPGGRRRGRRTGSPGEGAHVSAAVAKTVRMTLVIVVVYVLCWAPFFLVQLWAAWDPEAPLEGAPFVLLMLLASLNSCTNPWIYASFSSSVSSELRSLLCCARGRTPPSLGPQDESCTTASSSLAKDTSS

[31] = tested on: Ca2+ channel (L, dihydropyridine site); experiment: Cerep binding, antagonist radioligand; details: 5 µM
[32] = tested on: KATP channel; experiment: Cerep binding, antagonist radioligand; details: 5 µM
[33] = target: T22, norepinephrine transporter (h) (Homo sapiens, UniProt P23975); experiment: Cerep binding, antagonist radioligand; details: read-out: % Inhibition of Control Specific Binding
T22 construct: purchased Eurofins Pharma Discovery Services (CEREP diversity panel)

[34] = target: T23, dopamine transporter (h) (Homo sapiens, UniProt Q01959); experiment: Cerep binding, antagonist radioligand; details: read-out: % Inhibition of Control Specific Binding
T23 construct: purchased Eurofins Pharma Discovery Services (CEREP diversity panel)

[35] = target: T24, 5-lipoxygenase (h) (Homo sapiens, UniProt P09917); experiment: Cerep enzyme and cell-based assays; format: biochemical; details: read-out: % Inhibition of Control Values
T24 construct: purchased Eurofins Pharma Discovery Services (CEREP diversity panel)

[36] = target: T25, PDE2A1 (h) (Homo sapiens, UniProt O00408); experiment: Cerep enzyme and cell-based assays; format: biochemical; details: read-out: % Inhibition of Control Values
T25 construct: Eurofins Pharma Discovery Services (CEREP diversity panel, outsourced assay)

[37] = target: T26, PDE3A (h) (Homo sapiens, UniProt Q14432); experiment: Cerep enzyme and cell-based assays; format: biochemical; details: read-out: % Inhibition of Control Values
T26 construct: Eurofins Pharma Discovery Services (CEREP diversity panel, outsourced assay)
T26 sequence (Q14432 whole entry): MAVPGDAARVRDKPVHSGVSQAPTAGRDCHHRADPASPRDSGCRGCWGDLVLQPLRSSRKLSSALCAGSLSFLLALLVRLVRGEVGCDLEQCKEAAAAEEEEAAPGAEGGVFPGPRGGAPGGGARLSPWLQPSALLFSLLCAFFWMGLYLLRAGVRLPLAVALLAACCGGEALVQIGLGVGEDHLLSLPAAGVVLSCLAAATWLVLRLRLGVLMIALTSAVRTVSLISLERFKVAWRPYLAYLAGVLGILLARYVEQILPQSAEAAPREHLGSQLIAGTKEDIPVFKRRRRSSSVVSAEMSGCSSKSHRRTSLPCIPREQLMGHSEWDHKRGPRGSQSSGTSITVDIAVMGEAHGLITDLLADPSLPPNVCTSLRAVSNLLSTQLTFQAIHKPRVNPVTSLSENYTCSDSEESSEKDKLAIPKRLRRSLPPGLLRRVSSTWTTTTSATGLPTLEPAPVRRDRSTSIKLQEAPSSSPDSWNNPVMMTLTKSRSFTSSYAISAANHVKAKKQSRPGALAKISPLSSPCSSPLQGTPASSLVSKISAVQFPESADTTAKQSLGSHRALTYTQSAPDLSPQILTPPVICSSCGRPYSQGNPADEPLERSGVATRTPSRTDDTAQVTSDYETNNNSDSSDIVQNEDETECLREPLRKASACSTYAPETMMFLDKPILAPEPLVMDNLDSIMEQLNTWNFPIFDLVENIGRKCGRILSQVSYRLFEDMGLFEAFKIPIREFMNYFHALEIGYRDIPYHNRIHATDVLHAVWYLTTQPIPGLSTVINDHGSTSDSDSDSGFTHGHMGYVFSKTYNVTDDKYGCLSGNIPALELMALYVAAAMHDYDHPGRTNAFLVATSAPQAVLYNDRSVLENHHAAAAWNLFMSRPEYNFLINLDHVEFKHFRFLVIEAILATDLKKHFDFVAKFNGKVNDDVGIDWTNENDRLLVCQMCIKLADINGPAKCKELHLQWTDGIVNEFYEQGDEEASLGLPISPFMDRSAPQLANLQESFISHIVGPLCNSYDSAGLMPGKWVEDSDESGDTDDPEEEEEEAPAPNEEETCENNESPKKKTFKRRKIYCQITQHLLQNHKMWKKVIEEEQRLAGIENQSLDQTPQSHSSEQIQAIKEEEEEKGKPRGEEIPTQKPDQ

[38] = target: T27, PDE5 (h) (non-selective) (Homo sapiens, UniProt O76074); experiment: Cerep enzyme and cell-based assays; format: biochemical; details: read-out: % Inhibition of Control Values
T27 construct: Eurofins Pharma Discovery Services (CEREP diversity panel, outsourced assay)

[39] = target: T28, PKCalpha (h) (Homo sapiens, UniProt P17252); experiment: Cerep enzyme and cell-based assays; format: biochemical; details: read-out: % Inhibition of Control Values
T28 construct: Eurofins Pharma Discovery Services (CEREP diversity panel, outsourced assay)

[40] = target: T29, Eg5 (h) (Homo sapiens, UniProt P52732); experiment: Cerep enzyme and cell-based assays; format: biochemical; details: read-out: % Inhibition of Control Values
T29 construct: Eurofins Pharma Discovery Services (CEREP diversity panel, outsourced assay)

[41] = target: T30, HDAC3 (h) (Homo sapiens, UniProt O15379); experiment: Cerep enzyme and cell-based assays; format: biochemical; details: read-out: % Inhibition of Control Values
T30 construct: Eurofins Pharma Discovery Services (CEREP diversity panel, outsourced assay)

[42] = target: T31, sirtuin 2 (h) (inhibitor effect) (Homo sapiens, UniProt Q8IXJ6); experiment: Cerep enzyme and cell-based assays; format: biochemical; details: read-out: % Inhibition of Control Values
T31 construct: Eurofins Pharma Discovery Services (CEREP diversity panel, outsourced assay)

[43] = tested on: guanylyl cyclase (h) (activator effect); experiment: Cerep enzyme and cell-based assays; format: biochemical, human; details: 5 µM
[44] = tested on: Panc-Tu-I cells; experiment: long-term time-lapse microscopy; details: 72 h, 5 μM Deltarasin or 10 μM Deltazinone 1
[45] = target: choline transporter (CHT1) (h) (Homo sapiens, UniProt Q9GZV3); experiment: Cerep binding, antagonist radioligand; details: read-out: % Inhibition of Control Specific Binding
[46] = tested on: S6P phosphorylation; experiment: western blot, S6P phosphorylation in PANC-1
Description: To examine whether PDEδ inhibition by Deltarasin and Deltazinone 1 downregulates the signal transduction via these pathways, we examined the phosphorylation of extracellular signal regulated kinase (Erk) and S6 Ribosomal Protein (S6P) in the oncogenic KRas-dependent Panc-Tu-1 and KRas-independent PANC-1 cells. […] Cells were lysed with RIPA-buffer (20 mM Tris pH 7.5, 150 mM NaCl, 0.5 mM Na2 EDTA, 1 % sodium deoxycholate, 0.1% sodium dodecyl sulfate, 1% IGEPAL supplemented with Complete Mini EDTA-free protease inhibitor (Roche Applied Science) and 1% phosphatase inhibitor cocktail 2 and 3 (P5726 and P0044, Sigma Aldrich), scraped off after 5 min on ice and centrifuged at 14,000g for 20 min at 4 °C. SDS–polyacrylamide gel electrophoresis was carried out with 10–25 μg of whole-cell lysate from each sample. The gels were blotted onto polyvinylidene difluoride membrane (Millipore) and blocked for 1 h at room temperature. […] Blots were scanned on a LI-COR Odyssey imaging system.
Western blots were quantified using ImageJ. The background of the blots was subtracted by applying the rolling ball subtraction with a radius of 50 pixels. Afterwards the integrated intensity of the bands was measured.

Cc1ccc(-n2nc3c(=O)n(CCCC(=O)NCC(C)c4ccccc4)nc(C)c3c2C)cc1 (centres unmarked) [2k]
inhibition at 5 µM [1]: -6%
% Inhibition of Control Specific Binding [2]: 4%
inhibition at 5 µM [3]: -1%
inhibition at 5 µM [4]: 9%
inhibition at 5 µM [5]: 9%
inhibition at 5 µM [6]: 10%
% Inhibition of Control Specific Binding [7]: -24%
inhibition at 5 µM [8]: 12%
inhibition at 5 µM [9]: -43%
inhibition at 5 µM [10]: -1%
inhibition at 5 µM [11]: 18%
inhibition at 5 µM [12]: -12%
% Inhibition of Control Specific Binding [13]: -7%
% Inhibition of Control Specific Binding [14]: 2%
% Inhibition of Control Specific Binding [15]: -6%
inhibition at 5 µM [16]: 5%
% Inhibition of Control Specific Binding [17]: 39%
inhibition at 5 µM [18]: 16%
inhibition at 5 µM [19]: -1%
inhibition at 5 µM [20]: 22%
inhibition at 5 µM [21]: 3%
% Inhibition of Control Specific Binding [22]: 42%
inhibition at 5 µM [23]: 6%
inhibition at 5 µM [24]: 6%
% Inhibition of Control Specific Binding [25]: 16%
% Inhibition of Control Specific Binding [26]: -25%
inhibition at 5 µM [27]: 3%
inhibition at 5 µM [28]: 5%
inhibition at 5 µM [29]: 7%
inhibition at 5 µM [30]: -4%
% Inhibition of Control Specific Binding [31]: -2%
% Inhibition of Control Specific Binding [32]: 16%
inhibition at 5 µM [33]: 8%
inhibition at 5 µM [34]: 17%
inhibition at 5 µM [35]: 1%
inhibition at 5 µM [36]: 2%
inhibition at 5 µM [37]: 1%
inhibition at 5 µM [38]: 3%
inhibition at 5 µM [39]: 7%
inhibition at 5 µM [40]: 3%
inhibition at 5 µM [41]: 0%
inhibition at 5 µM [42]: 6%
% Inhibition of Control Values [43]: 3%
cell death in time-lapse microscopy [44]: cell death
inhibition at 5 µM [45]: 18%
S6P phosphorylation ([46]; PANC-1, 20 μM, longer incubation times (>3 h)): remained unaffected

c1ccc(Cn2c(-c3ccc(OC[C@H](C4CCNCC4)n4c(-c5ccccc5)nc5ccccc54)cc3)nc3ccccc32)cc1 [Deltarasin, reference compound]
inhibition at 5 µM [1]: 28%
% Inhibition of Control Specific Binding [2]: 33%
inhibition at 5 µM [3]: 21%
inhibition at 5 µM [4]: 7%
inhibition at 5 µM [5]: 41%
inhibition at 5 µM [6]: 49%
% Inhibition of Control Specific Binding [7]: -17%
inhibition at 5 µM [8]: 24%
inhibition at 5 µM [9]: 34%
inhibition at 5 µM [10]: 98%
inhibition at 5 µM [11]: 93%
inhibition at 5 µM [12]: 15%
% Inhibition of Control Specific Binding [13]: 14%
% Inhibition of Control Specific Binding [14]: 17%
% Inhibition of Control Specific Binding [15]: 14%
inhibition at 5 µM [16]: 38%
% Inhibition of Control Specific Binding [17]: 19%
inhibition at 5 µM [18]: 19%
inhibition at 5 µM [19]: 32%
inhibition at 5 µM [20]: 28%
inhibition at 5 µM [21]: 89%
% Inhibition of Control Specific Binding [22]: 12%
inhibition at 5 µM [23]: 10%
inhibition at 5 µM [24]: 28%
% Inhibition of Control Specific Binding [25]: 13%
% Inhibition of Control Specific Binding [26]: -1%
inhibition at 5 µM [27]: 41%
inhibition at 5 µM [28]: -23%
inhibition at 5 µM [29]: 42%
inhibition at 5 µM [30]: 20%
% Inhibition of Control Specific Binding [31]: 87%
% Inhibition of Control Specific Binding [32]: -10%
inhibition at 5 µM [33]: 70%
inhibition at 5 µM [34]: 65%
inhibition at 5 µM [35]: 33%
inhibition at 5 µM [36]: 3%
inhibition at 5 µM [37]: 11%
inhibition at 5 µM [38]: 92%
inhibition at 5 µM [39]: 66%
inhibition at 5 µM [40]: 9%
inhibition at 5 µM [41]: 23%
inhibition at 5 µM [42]: 15%
% Inhibition of Control Values [43]: 0%
cell death in time-lapse microscopy [44]: cell death
inhibition at 5 µM [45]: 27%
EGF-induced S6P phosphorylation ([46]; PANC-1, 1 h, 5 μM Deltarasin, 5 min EGF): reduced in both lines
